The source of these data is PMC11876692, “Synthesis, physicochemical characterization and biological activity of novel pyrrole flavones” (Scientific Reports, 2025).

One data set has as its system 5637 cells. As to the kind of experiment: MTT assay, cytotoxicity towards 5637 bladder cancer cells. The data set is classed as cell-based, human. As to conditions: for IC50: Homo sapiens, MTT; for cell viability: preliminary experiment (10 µM implied). On the procedure: (§1) Human urinary bladder grade II carcinoma cell line (5637), human urinary bladder carcinoma (HT-1376), and human lung fibroblasts (MRC-5) were purchased from ATCC (Manassas, VA, USA). The 5637 cells were grown in RPMI, HT-1376 cells were cultured in EMEM, and MRC-5 in DMEM. All media were supplemented with 10% (v/v) FBS, 2 mM L-glutamine, 100 U/mL penicillin, and […] streptomycin (1% v/v). The cells were cultured at 37 °C in a humidified atmosphere with 5% CO2.
(§2) Tested compounds were dissolved in DMSO at a concentration of 10 mM for preliminary study. […] Stock solutions were stored in the dark at -20 °C.
(§3) For the preliminary experiments, the 5637 cells were used. The compounds were prepared in the cell culture medium at a concentration of 0.1 µM, 1 µM, and 10 µM. DMSO was used as a control. […] Cells were treated with compounds for 24, 48, and 72 h. Cells were washed twice with DPBS, and 170 µL of MTT solution at a final concentration of 0.59 mg/mL in culture medium was added. Cells were incubated with MTT solution for 1.5 h at standard cell culture conditions. After incubation, MTT was removed, and formazan crystals were dissolved with 200 µL DMSO. The absorbance was measured at a wavelength of 570 nm using a plate reader (Biotek Instruments, Elx-800, Winooski, VT, USA).
(§4) Subsequently, cells were treated with compound 4a at a concentration of 0.5 µM, 1 µM, 2 µM, 4 µM, 6 µM, and 8 µM and compound 5b at a concentration range of 2 µM, 4 µM, 6 µM, 8 µM,10 µM, and 15 µM for 24 h and 48 h. […] The MTT assay was performed as described above.
(§5) The IC50 values were calculated using the GraphPad Prism 8 software (GraphPad Software, Inc., La Jolla, CA, USA), and cell viability was expressed as a percentage of the control. At least three biological replicates were performed for each compound.
Background: Formazan colour is commonly taken as a measure of viable cells.

A further data set concerns Aliivibrio fischeri. As to conditions: 10 µM.
The test system of the next data set is HT-1376 cells. As to the kind of experiment: MTT assay, cytotoxicity towards HT-1376 bladder cancer cells. The data set is classed as cell-based, human. The protocol:
as §1, §2, §3, §4, §5

Data set [1] can be described thus: MTT assay, cytotoxicity towards non-cancerous MRC-5 fibroblasts. The data set is classed as cell-based, human. As to conditions: human, MRC-5 lung fibroblasts, MRC-5 cells, 24 h, read-out: cell viability. On the procedure: as §1, §2, §3, §4, §5
The next data set has as its system MRC-5 cells. The description is as above. It is filed as cell-based, human. As to conditions: for IC50: Homo sapiens, MTT; for effect on viability of MRC-5 cells: all tested concentrations (2-15 µM), 24 and 48 h. The protocol: as §1, §2, §3, §4, §5
[2] abbreviates: Homo sapiens, HT-1376, 24 h, 24 h.
Setting [3] is: Homo sapiens, HT-1376, 48 h, 48 h.

Molecules are shown by their SMILES.

Experimental for Aliivibrio fischeri: All the synthesized derivatives were subjected to the Microtox test. […] The acute toxicity of the tested compounds was measured using the Microtox test. For the measurements, the 81.9% screening test procedure was applied using the Microtox [MUT] apparatus along with the Microtox Omni 4.2 software supplied by the manufacturer (Modern Water plc). Briefly, the bioluminescence of bacterial suspension was measured before the addition of the solution of the tested compound and after 5 and 15 min upon exposure. […] As the control, 2% sodium chloride solution was used (Modern Water Microtox Diluent).

As to `Cc1ccc(C)n1-c1ccc2oc(-c3ccccc3)cc(=O)c2c1` [4a, 6-(2,5-Dimethylpyrrol-1-yl)-2-phenylchromen-4-one], in the data set with 5637 cells (10 µM), the “effect on viability of cancer cells” value is “did not affect the viability”. This molecule also yielded a decrease in bioluminescence in the data set on Aliivibrio fischeri of 80%.

`Cc1ccc(-c2ccccc2)n1-c1ccc2oc(-c3ccccc3)cc(=O)c2c1` [4b, 6-(2-Methyl-5-phenylpyrrol-1-yl)-2-phenylchromen-4-one]: the IC50 with 5637 cells (24 h) is 2.97 ± 0.17 µM; with 5637 cells (48 h), 2.12 ± 0.19 µM; in the data set on HT-1376 cells (24 h) it was 5.89 ± 1.1 µM; with HT-1376 cells (setting [2]), ~5 µM; in the data set with HT-1376 cells (setting [3]), 5.37 ± 1.44 µM; in the data set on MRC-5 cells (MRC5, 24 h), > 8 µM. Also, the IC50 in the data set with MRC-5 cells (MRC5, 48 h) was 5.21 ± 0.1 µM. In addition, the viability at 24 h, 6 µM in data set [1] (6 µM) is 57%. The viability at 24 h, 8 µM in data set [1] (8 µM) came to 52%.

Turning to `Cc1ccc(C)n1-c1ccc2c(=O)cc(-c3ccccc3)oc2c1` [5a, 7-(2,5-Dimethylpyrrol-1-yl)-2-phenylchromen-4-one], the cell viability in the data set with 5637 cells (48 h of incubation) is 75.8%; in the data set with 5637 cells (72 h of incubation), 48%.

As for `Cc1ccc(-c2ccccc2)n1-c1ccc2c(=O)cc(-c3ccccc3)oc2c1` [5b, 7-(2-Methyl-5-phenylpyrrol-1-yl)-2-phenylchromen-4-one], the 50% inhibitory concentration (IC50) was 7.39 ± 2.02 µM with 5637 cells (24 h); 4.61 ± 0.1 µM in the data set with 5637 cells (48 h); 13.5 ± 1.41 µM in the data set on HT-1376 cells (24 h); ~13 µM in the data set with HT-1376 cells (setting [2]); 11.7 ± 1.74 µM in the data set on HT-1376 cells (setting [3]); > 15 µM in the data set on MRC-5 cells (MRC5, 24 h). For the same molecule, the IC50 in the data set on MRC-5 cells (MRC5, 48 h) is > 15 µM. Besides, the “effect on viability of MRC-5 cells” value in the data set on MRC-5 cells is recorded as “did not decrease cell viability”; with MRC-5 cells (listed as flavone derivative with 7-(2-methyl-5-phenylpyrrol-1-yl)), “without any effect”.

As usually defined, the IC50 is the concentration that gives 50% inhibition. A higher IC50 goes with weaker potency. What is called viability is the share of living cells, or the viability signal relative to a control. One may read the cell viability as the share of living cells, or the viability signal relative to a control. High values mean better survival, low ones a greater loss of cells.
